{"source": "patent US20040127403A1", "about": "“Methods for treating and preventing Gram-positive bacteremias” (priority 2002, published 2004)", "key": {"[1]": {"experiment": "In vitro interaction of ramoplanin with human intestinal contents", "description": "The in vitro interaction of ramoplanin with human intestinal contents was studied. […] The binding and the subsequent release of ramoplanin from feces would likely result in long-lasting concentrations in the intestinal tract."}, "S. epidermidis ATCC35984": {"test_system": "S. epidermidis ATCC35984", "experiment": "MIC, NCCLS broth microdilution", "format": "cell-based", "conditions": "S. epidermidis ATCC35984"}, "[2]": {"test_system": "VanA strain of E. faecium (VRE)", "experiment": "Suppression of VRE in a mouse colonization model", "format": "in vivo, Mice", "method": "Mice were colonized with a clinical isolate VanA strain of E. faecium (VRE) isolated from a septicemic patient. A single inoculation of 5×10^8 cfu VRE by oral gavage (Day 0) was followed by treatment with vancomycin in the drinking water to maintain colonization. On day 22, each group received the same vancomycin-containing drinking water. One group also received ramoplanin (100 μg/mL) in its drinking water. The dose of ramoplanin per day was estimated to be 15 mg/kg, based on a standard water consumption of 150 mL/kg/day. Treatment with ramoplanin was discontinued on Day 29, and vancomycin treatment was discontinued on Day 36. The control group consisted of five mice, while the ramoplanin group consisted of four mice."}, "Clostridium spp.": {"test_system": "Clostridium spp.", "experiment": "Multiple dose study: activity on stool microflora, Clostridium", "format": "in vivo, human", "method": "Healthy male volunteers were administered 200, 400, or 800 mg ramoplanin twice-a-day, for ten consecutive days. The predetermined dose was reconstituted in 5 mL water per vial, mixed with 50 mL of sweetened, aromatized solution, and immediately administered orally to the subjects.\nThe antibacterial activity of ramoplanin on the stool microflora was assessed in a subset of the subjects. Microbial concentrations (i.e., the number of organisms per gram of fecal matter) were determined at the following time points: Day-4 (pre-treatment), Days 4 and 10 (treatment), and Days […] and 24 (follow-up). Tolerability and absorption were also investigated."}, "E. faecalis ATCC29212": {"test_system": "E. faecalis ATCC29212", "experiment": "MIC, NCCLS broth microdilution", "format": "cell-based", "conditions": "E. faecalis ATCC29212", "method_in_brief": "(§1)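 Broth microdilution followed the NCCLS method, with MICs read in both cation-adjusted Mueller-Hinton broth and trypticase soy broth. Media carrying ramoplanin were supplemented with 0.02% bovine serum albumin to prevent the compound from binding to plastic.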"}, "E. faecium UA392": {"test_system": "E. faecium UA392", "experiment": "MIC, NCCLS broth microdilution", "format": "cell-based", "conditions": "E. faecium UA392", "method_in_brief": "as §1"}, "E. faecium A 6350 Line-R": {"test_system": "E. faecium A 6350 Line-R", "experiment": "MIC, NCCLS broth microdilution", "format": "cell-based", "conditions": "E. faecium A 6350 Line-R (Table 2)", "method_in_brief": "as §1"}, "E. faecium A6343 Line-R": {"test_system": "E. faecium A6343 Line-R", "experiment": "MIC, NCCLS broth microdilution", "format": "cell-based", "method_in_brief": "as §1"}, "VRE": {"test_system": "VRE", "experiment": "Time-kill studies against VRE", "format": "cell-based"}, "S. epidermidis ATCC18972": {"test_system": "S. epidermidis ATCC18972", "experiment": "MIC, NCCLS broth microdilution", "format": "cell-based", "conditions": "S. epidermidis ATCC18972"}, "[3]": {"experiment": "Single dose study in healthy male volunteers: absorption and fecal recovery", "format": "in vivo, human", "method": "The absorption, tolerability, and recovery of ramoplanin following single dose oral administration were investigated in male volunteers. Ramoplanin was administered as an aqueous solution at a dose of 100, 200, 500, or 1000 mg to fasting subjects. Serum samples were obtained prior to drug administration of ramoplanin and 0.5, 1, 2, 3, 6, 9, 12, 24, 48, 72, and 96 hours after treatment. Urine samples were collected prior to administration of ramoplanin and over the periods 0-3, 3-6, 6-12, 12-24, 24-48, 48-72, and 72-96 hours after dosing. Fecal samples were collected prior to dosing and over the periods 0-16 (Day 1), 16-40 (Day 2), 40-64 (Day 3), 64-88 (Day 4), and 88-96 (Day 5) hours after dosing. A microbiological assay employing Bacillis subtilis ATCC 6633 as the test organism was used to determine ramoplanin concentrations in serum, urine, and feces. The limits of quantitation for this assay were 0.02 μg/mL in serum, 0.012 μg/mL in urine, and 3 μg/g in feces. Tolerability was assessed on the basis of clinical signs and symptoms and the results of blood and urine laboratory tests."}, "[4]": {"experiment": "Oral formulation study: ramoplanin in feces, plasma and urine", "format": "in vivo, human", "conditions": "400 mg b.i.d. seven days", "method": "To further elucidate the pharmacodynamics and intestinal bioavailability, healthy male volunteers (18-45 years; BMI—19-29 kg/m^2) were administered oral ramoplanin (400 mg b.i.d.) for seven days and fecal Enterococci were monitored. Ramoplanin was administered to six subjects as a granulated powder admixed with Orasweet® syrup vehicle."}, "[5]": {"conditions": "Day 29, completion of ramoplanin therapy, 25 mg/kg/day vancomycin + 15 mg/kg/day ramoplanin in drinking water"}}, "note": "Values joined by “and” are separate entries in the source; they are usually repeats but may differ in a detail not shown here. Equal values may be shown once.", "data": [{"substance": "Ramoplanin", "values": [{"measurement": "binding to feces", "setting": "[1]", "result": "bind reversibly to solid components of feces"}, {"measurement": "microbiological activity in feces", "setting": "[1]", "result": "microbiologically active in feces"}, {"measurement": "MIC", "setting": "S. epidermidis ATCC35984; CAMHB", "result": "0.5, 0.5 μg/ml"}, {"measurement": "MIC", "setting": "S. epidermidis ATCC35984; TSB", "result": "0.5, 0.5 μg/ml"}, {"measurement": "MIC", "setting": "S. epidermidis ATCC35984; Table 6, 1st", "result": 1, "unit": "µg/mL"}, {"measurement": "MIC", "setting": "S. epidermidis ATCC35984; Table 6, 2nd", "result": 0.25, "unit": "µg/mL"}, {"measurement": "% Mice with VRE", "setting": "[2]; [5]", "result": 0, "unit": "%"}, {"measurement": "Enterococci in faeces: Total Enterococci", "setting": "[2]; [5]", "result": "<2.4", "unit": "log 10 cfu/g faeces"}, {"measurement": "Enterococci in faeces: VRE", "setting": "[2]; [5]", "result": "<3.1", "unit": "log 10 cfu/g faeces"}, {"measurement": "VRE concentration per gram of feces", "setting": "[2]; mice, after one week of ramoplanin treatment, all animals (undetectable level)", "result": "< 3.1", "unit": "log units"}, {"measurement": "VRE concentration per gram of feces", "setting": "[2]; mice, before ramoplanin treatment", "result": 9.7, "unit": "log units"}, {"measurement": "fecal density and carriage of VRE", "setting": "[2]; mice, ramoplanin 100 μg/mL in drinking water", "result": "significantly reduced"}, {"measurement": "subjects with Clostridium spp. concentration reduced below detectable levels", "setting": "Clostridium spp.; multiple dose study, stool microflora subset", "result": "10 of 12"}, {"measurement": "clostridial load", "setting": "Clostridium spp.; two subjects carrying ramoplanin- and vancomycin-resistant Clostridium spp. (C. rectum and C. beijerinckii) before treatment", "result": "no variation"}, {"measurement": "MIC", "setting": "E. faecalis ATCC29212; CAMHB", "result": "0.5, 0.5 μg/ml"}, {"measurement": "MIC", "setting": "E. faecalis ATCC29212; TSB", "result": "0.5, 0.5 μg/ml"}, {"measurement": "MIC", "setting": "E. faecalis ATCC29212; Table 6, 1st", "result": 0.25, "unit": "µg/mL"}, {"measurement": "MIC", "setting": "E. faecalis ATCC29212; Table 6, 2nd", "result": "0.5 µg/mL and 0.25 µg/mL"}, {"measurement": "MIC", "setting": "E. faecium UA392; CAMHB", "result": "0.25, 0.25 μg/ml"}, {"measurement": "MIC", "setting": "E. faecium UA392; TSB", "result": "0.25, 0.25 μg/ml"}, {"measurement": "MIC", "setting": "E. faecium UA392; Table 6, 1st", "result": 0.125, "unit": "µg/mL"}, {"measurement": "MIC", "setting": "E. faecium UA392; Table 6, 2nd", "result": 0.25, "unit": "µg/mL"}, {"measurement": "MIC", "setting": "E. faecium A 6350 Line-R; CAMHB", "result": "0.25, 0.25 μg/ml"}, {"measurement": "MIC", "setting": "E. faecium A 6350 Line-R; TSB", "result": "0.25, 0.25 μg/ml"}, {"measurement": "MIC", "setting": "E. faecium A6343 Line-R; CAMHB", "result": "0.25, 0.25 μg/ml"}, {"measurement": "MIC", "setting": "E. faecium A6343 Line-R; TSB", "result": "0.25, 0.25 μg/ml"}, {"measurement": "MIC", "setting": "E. faecium A6343 Line-R; Table 6, 1st", "result": 0.125, "unit": "µg/mL"}, {"measurement": "MIC", "setting": "E. faecium A6343 Line-R; Table 6, 2nd", "result": 0.25, "unit": "µg/mL"}, {"measurement": "time-kill activity", "setting": "VRE", "result": "bactericidal activity"}, {"measurement": "MIC", "setting": "S. epidermidis ATCC18972; CAMHB", "result": "0.5, 0.5 μg/ml"}, {"measurement": "MIC", "setting": "S. epidermidis ATCC18972; TSB", "result": "1, 1 μg/ml"}, {"measurement": "MIC", "setting": "S. epidermidis ATCC18972; Table 6, 1st", "result": 1, "unit": "µg/mL"}, {"measurement": "MIC", "setting": "S. epidermidis ATCC18972; Table 6, 2nd", "result": 0.25, "unit": "µg/mL"}, {"measurement": "subjects with ramoplanin still detectable in feces", "setting": "[3]; fourth day of study, single oral dose", "result": "17 of 24"}, {"measurement": "ramoplanin in serum/plasma or urine", "setting": "[3]; healthy male volunteers, single oral doses up to 1000 mg and multiple oral doses 200, 400, 800 mg B.I.D. 10 days, bioassay and HPLC", "result": "not detected"}, {"measurement": "Mean cumulative recovery of ramoplanin in feces", "setting": "[3]; single oral dose 100 mg", "result": "67.7 % of the administered dose"}, {"measurement": "Mean maximum concentration in feces", "setting": "[3]; single oral dose 100 mg", "result": 214, "unit": "µg/g"}, {"measurement": "cumulative recovery of ramoplanin in feces, range", "setting": "[3]; single oral dose 100 mg", "result": "55.7-84 % of the administered dose"}, {"measurement": "maximum concentration in feces, range", "setting": "[3]; single oral dose 100 mg", "result": "148 to 278", "unit": "µg/g"}, {"measurement": "Mean cumulative recovery of ramoplanin in feces", "setting": "[3]; single oral dose 200 mg", "result": "48.5 % of the administered dose"}, {"measurement": "Mean maximum concentration in feces", "setting": "[3]; single oral dose 200 mg", "result": 287, "unit": "µg/g"}, {"measurement": "cumulative recovery of ramoplanin in feces, range", "setting": "[3]; single oral dose 200 mg", "result": "39.3-56.5 % of the administered dose"}, {"measurement": "maximum concentration in feces, range", "setting": "[3]; single oral dose 200 mg", "result": "164 to 454", "unit": "µg/g"}, {"measurement": "Mean cumulative recovery of ramoplanin in feces", "setting": "[3]; single oral dose 500 mg", "result": "52.8 % of the administered dose"}, {"measurement": "Mean maximum concentration in feces", "setting": "[3]; single oral dose 500 mg", "result": 1655, "unit": "µg/g"}, {"measurement": "cumulative recovery of ramoplanin in feces, range", "setting": "[3]; single oral dose 500 mg", "result": "41.3-79.6 % of the administered dose"}, {"measurement": "maximum concentration in feces, range", "setting": "[3]; single oral dose 500 mg", "result": "737 to 3316", "unit": "µg/g"}, {"measurement": "Mean cumulative recovery of ramoplanin in feces", "setting": "[3]; single oral dose 1000 mg", "result": "46.4 % of the administered dose"}, {"measurement": "Mean maximum concentration in feces", "setting": "[3]; single oral dose 1000 mg", "result": 1835, "unit": "µg/g"}, {"measurement": "cumulative recovery of ramoplanin in feces, range", "setting": "[3]; single oral dose 1000 mg", "result": "39.9-58.4 % of the administered dose"}, {"measurement": "maximum concentration in feces, range", "setting": "[3]; single oral dose 1000 mg", "result": "1336 to 3154", "unit": "µg/g"}, {"measurement": "time of maximum ramoplanin concentration and maximum percentage recovery in feces", "setting": "[3]; single oral dose 100-1000 mg", "result": "the day after administration (Day 2)"}, {"measurement": "fecal ramoplanin concentration", "setting": "[4]", "result": "0.56 to 2.65", "unit": "mg/g"}, {"measurement": "ramoplanin concentration in plasma or urine", "setting": "[4]; any subject", "result": "No measurable ramoplanin concentration was detected"}]}]}
